Starred links: 1 amine or outer side, 2 acyl side, 3 side chain; linkers in the order of their positions; H or OH if unused. Non-standard residues stand in square brackets, D forms with d. Residues, ends and D or L forms follow the SMILES beside them. Groups on a side chain read outwards from the residue. N(2S-amino-4-Me-pentyl)Phe = CC(C)C[C@@H](CN([C@@H](Cc1ccccc1)C(=O)[*:2])[*:1])N[*:3]; Nle = CCCC[C@H](N)C(=O)O
Legend:
Experiment in all cases: Protease Inhibition Assay
Conditions in all cases: pH 5; 22 °C
[1] = target: T1, Dimer of Gag-Pol polyprotein [501-599,Q508K,L534I,L564I,C568A,C596A,G574S] (Human immunodeficiency virus 1, UniProt P03367, C568A/C596A/G574S/L534I/L564I/Q508K)
T1 construct: 501-599
Text: (§1) The Ki values were obtained from the IC50 values estimated from an inhibitor dose-response curve with the spectroscopic assay and the chromogenic substrate.

[2] = target: T2, Dimer of Gag-Pol polyprotein [501-599,Q508K,L534I,L564I,C568A,C596A,I551V] (Human immunodeficiency virus 1, UniProt P03367, C568A/C596A/I551V/L534I/L564I/Q508K)
T2 construct: 501-599
Text: as §1

[3] = target: T3, Dimer of Gag-Pol polyprotein [501-599,Q508K,L534I,L564I,C568A,C596A,L525I] (Human immunodeficiency virus 1, UniProt P03367, C568A/C596A/L525I/L534I/L564I/Q508K)
T3 construct: 501-599
Text: as §1

[4] = target: T4, Dimer of Gag-Pol polyprotein [501-599,Q508K,L534I,L564I,C568A,C596A] (Human immunodeficiency virus 1, UniProt P03367, C568A/C596A/L534I/L564I/Q508K)
T4 construct: 501-599
Text: as §1

Compound: CCCC[C@H](NC(=O)[C@H](C)NC(=O)[C@H](CCC(=O)O)NC(=O)[C@H](Cc1ccccc1)NC[C@H](CC(C)C)NC(=O)[C@@H](NC(=O)[C@@H](N)CCCNC(=N)N)C(C)C)C(N)=O [N-1270] (H-[N(2S-amino-4-Me-pentyl)Phe]([Val-Arg])EA[Nle]-NH2)
- Ki [1]: 0.33 µM
- Ki [2]: 0.23 µM
- Ki [3]: 0.0035 µM
- Ki [4]: 0.075 µM

Source: BindingDB's records for doi:10.1016/j.jmb.2005.09.095 (Georgia State University, 2005)
